Test results as given in article PMC10474154, “Pro-arrhythmic effect of escitalopram and citalopram at serum concentrations commonly observed in older patients – a study based on a cohort of 19,742 patients” (eBioMedicine, 2023).
Values joined by “and” are separate entries in the source; they are usually repeats but may differ in a detail not shown here. Equal entries are not always repeated. “Also recorded” adds a separate entry of the source. Where two headings read alike, the source gives them in different places. Values belong to the compound of their own block, whether it stands above or below them.

What was measured:
[1] = test system: human induced pluripotent stem cell-derived cardiomyocytes (hiPSC-CM); assay: Action potential recordings in hiPSC-CM with voltage sensitive dye (FluoVolt, CellOPTIQ); format: cell-based
Experimental: Cryopreserved human induced pluripotent stem cell-derived cardiomyocytes (hiPSC-CM): CDI iCell cardiomycytes^2 01434 CardioTox Kit (Catalog #: R1222, FujiFilm CDI, Madison, WI) were kept in liquid nitrogen until culture according to instructions by the manufacturer. […] All studies were conducted at Clyde Biosciences (Glasgow, Scotland). Cells were cultured in 96-well glass-bottomed plates (MatTek, Ashland, Massachusetts) coated with fibronectin ([…] in PBS supplemented with Ca2+ and Mg2+) (Sigma, St. Louis, Missouri) in a humidified incubator at 37 °C for 3 h. The cell density was 50,000 cells/cm2 (25,000 cells/well). The subsequent maintenance protocols followed manufacturer's instructions using their maintenance medial (FujiFilm CDI Cardiomyocytes Maintenance Media). Experiments were performed between days 4–8. Prior to beginning an experiment, cells were washed in serum-free media (SF media), specifically DMEM (Gibco, ThermoFisher Scientific, UK) supplemented with 10 mM galactose and 10 mM sodium pyruvate.
hiPSC-CM were loaded with 5 μM FluoVolt (ThermoFisher) and the multiwell plate was placed in the CellOPTIQ platform (at Clyde Biosciences Ltd, Glasgow, Scotland). The FluoVolt fluorescence signal was recorded using a 40 × (NA 0.6) objective lens. Excitation wavelength was 480 ± 10 nm, and emitted light was collected by a photomultiplier (PMT) at 510–560 nm. Drugs were supplied by Santa Cruz Biotechnology (Germany) and Toronto Research Chemicals (Canada). Their identity and concentration were blinded from the laboratory personnel. […] 30 min after exposure to the tested drug or vehicle a 20 s recording was taken. Offline analysis was performed using proprietary software (CellOPTIQ®). The following (averaged) parameters were obtained from the AP recordings of 4 independent replicates: cycle length (CL, […]); rise time (Trise, ms) between 10 and 90% of the AP amplitude, and AP durations (APD, ms) from 10% to 90% repolarization at 10% intervals. In this study rate-correction was based on previous studies.[14]
Drugs were tested at 3 concentrations with matched vehicle controls for each concentration. The chosen escitalopram (S-citalopram) concentration was 60 nM. Assuming no protein binding in the in vitro model, this corresponds to a total serum concentration of 136 nM, as escitalopram protein binding is reported at 55–56% (most commonly 56%, which is used in the present study).[15], [16], [17] […] This could vary with age and clinical conditions.[20] […] In a large therapeutic drug monitoring (TDM) study 60 nM was the average total concentration in patients with normal escitalopram metabolism through CYP2C19, and 136 nM was below the average total concentration in poor metabolizers.[7] After administration of racemic citalopram, R-citalopram is reported to be 3 times higher than S-citalopram in a publication by Ji et al.[22] The typical concentration of R-citalopram as well as the S-/R-demethylcitalopram and S-/R-didemethylcitalopram metabolites, were calculated according to ratios from their paper.[22]
Shapiro Wilk tests were used to determine whether the data in this study were normally distributed based on a least-squares fit to a normal function, while Brown–Forsythe test was used to verify homogeneity of variance (Origin version 9, OriginLab Corp., Northampton, Massachusetts). […] Statistical tests were made using a paired t-tests for differences between absolute values, with P-values adjusted for multiple comparisons using the Benjamini-Hochberg procedure (one-way ANOVA). The relationship between AP duration at 90% of repolarization (APD90) and CL or diastolic interval was fit to single or double exponential functions (Origin version 9).

[2] = after intake of 20 mg; cited from earlier work
[3] = human, in vivo
Text: (§1) Information regarding age, sex, daily dose and time between last dose and blood sampling was also collected from the database. For patients with multiple TDM measurements, only the last measurement was included. Included patients were divided into four subgroups based on age: (a) < 18, (b) 18–64, (c) 65–80, and (d) > 80 years.
(§2) Measured serum concentrations represent total concentrations, i.e. the sum of bound and unbound drug.
(§3) All patients were included unless they met the exclusion criteria. Exclusion criteria were: (a) serum concentration of citalopram, escitalopram and/or demethylcitalopram outside the limits of quantification (LOQ), (b) blood sampling not performed at trough levels, outside the time interval of 10–28 h after last dose intake, (c) prescribed dose of citalopram or escitalopram less/more than 2.5–80 mg or 2.5–60 mg, respectively, and (d) detection of interacting drugs in the citalopram/escitalopram serum sample. In detail, we screened the samples for CYP2C19 inducers carbamazepine, phenobarbital and phenytoin and the CYP2C19 or –2D6 inhibitors bupropion, fluoxetine, fluvoxamine, paroxetine or levomepromazine.
(§4) Differences in absolute serum concentrations of citalopram, escitalopram and metabolites as well as differences in time between last blood sampling and daily dose was investigated across the age subgroups using Kruskal Wallis test followed by Dunn's test. P-values were Bonferroni corrected by multiplying the P-value by the number of statistical analyses that were performed.

[4] = design: method as in PMID 19841156; settings: cited from earlier work
[5] = cited from earlier work
plasma protein = test system: plasma protein; design: method as in PMID 17375980; settings: listed as escitalopram; cited from earlier work
[6] = Therapeutic drug monitoring (TDM) serum concentrations in patients; settings: escitalopram users
Text: as §1, §2, §3, §4

[7] = hiPSC-CM, 10x clinical concentration
[8] = hiPSC-CM, 100x clinical concentration
[9] = hiPSC-CM, all tested concentrations
[10] = hiPSC-CM, clinical concentration

Concentration dependence of triangulation ([1]; hiPSC-CM): dose-dependent increase
Effect on late repolarisation (APD90) ([1]; hiPSC-CM, 2000 nM): not late repolarisation
% Change of cycle length from baseline [1, 7]: -9.34±2.21 %
% Change of cycle length from baseline [1, 8]: -8.55±6.93 %
Concentration that increased triangulation (APD90-APD30) of the action potential ([1]; hiPSC-CM, 30 min exposure): 2000 nM
Concentration that reduced early repolarisation (APD30) ([1]; hiPSC-CM, 30 min exposure): 2000 nM
Effect on cycle length [1, 9]: limited shortening
% Change of cycle length from baseline [1, 10]: -6.45±4.32 %
SMILES: CNCCC[C@]1(c2ccc(F)cc2)OCc2cc(C#N)ccc21 [R-demethylcitalopram]

Triangulation effect ([1]; hiPSC-CM, 10 times typical concentrations): substantial increase
% Change of cycle length from baseline [1, 7]: -2.06±5.36%
% Change of cycle length from baseline [1, 8]: Quiescent
Concentration that increased late repolarisation (APD90) ([1]; hiPSC-CM, 30 min exposure): 60 nM
Concentration that increased triangulation (APD90-APD30) of the action potential ([1]; hiPSC-CM, 30 min exposure): 60 nM
Effect on cycle length [1, 9]: not affected
% Change of cycle length from baseline [1, 10]: 2.14±4.47%
Electrical activity of the cells ([1]; hiPSC-CM, highest concentrations (100 times typical)): electrically quiescent
Early and medium repolarisation (APD30 and APD50) ([1]; hiPSC-CM, intermediate concentrations): shortening
Triangulation (APD90-APD30) effect ([1]; hiPSC-CM, low concentrations): significantly increased
Increase in APD90 ([1]; hiPSC-CM, lowest S-citalopram concentration (60 nM)): 21.9 ms
Late repolarisation ([1]; hiPSC-CM, lowest tested concentrations): prolonged
% of serum concentrations above 136 nM [3]: 5.4-15.9%
Serum concentration, 10% percentile ([6]; trough): 21 nM
Serum concentration, 25% percentile ([6]; trough): 33 nM
Serum concentration, 50% percentile ([6]; trough): 52 nM
Serum concentration, 75% percentile ([6]; trough): 84 nM
Serum concentration, 90% percentile ([6]; trough): 126 nM
Serum concentration, maximum ([6]; trough): 730 nM
Serum concentration, minimum ([6]; trough): 7 nM
Serum concentration, mean ([6]; trough (10-28 h after dose)): 66 nM
SMILES: CN(C)CCC[C@@]1(c2ccc(F)cc2)OCc2cc(C#N)ccc21 [S-citalopram]
Calculated total serum concentration corresponding to a free concentration of 60 nM (potential pro-arrhythmic activity) ([1]; assuming 56% plasma protein binding): 136 nM
Depolarisation (phase 0) measured by TRise ([1]; hiPSC-CM, increasing concentrations): No changes; also recorded: No significant increase
QTc-prolongation corresponding to the APD90 increase ([1]; lowest S-citalopram concentration, translation per ref 33): 6.2 ms
FDA-reported QTc-prolongation [2]: 6.6 ms
Clearance, typical value (CLTV) ([4]; CYP2C19 normal/rapid metabolizer): 26.0 L/h
Clearance, typical value (CLTV) ([4]; CYP2C19 poor/intermediate metabolizer): 19.8 L/h
Absorption rate constant, typical value (KaTV) ([4]; population PK model): 0.8 h⁻¹
Volume of distribution, typical value (VTV) ([4]; population PK model): 947 L
Serum concentrations per dose, patients >65 years versus adults <40 years [5]: 1.4 times
Average total concentration in CYP2C19 poor metabolizers ([5]; large TDM study): > 136 nM
Average total concentration in patients with normal escitalopram metabolism through CYP2C19 ([5]; large TDM study): 60 nM
Time of maximum concentration after intake (Tmax) ([5]; listed as escitalopram): 3 to 4 h and 3.0 ± 1.5 h
Plasma protein binding (plasma protein): 55–56% and 56%

% Change of cycle length from baseline [1, 7]: 9.89±8.49%
% Change of cycle length from baseline [1, 8]: 0.09±7.78%
Concentration that increased early repolarisation (APD30) ([1]; hiPSC-CM, 30 min exposure): 15 nM
Concentration that increased late repolarisation (APD90) ([1]; hiPSC-CM, 30 min exposure): 15 nM
Concentration that increased medium repolarisation (APD50) ([1]; hiPSC-CM, 30 min exposure): 15 nM
Concentrations with significant effect on triangulation (APD90-APD30) [1, 9]: No tested concentrations
Effect on cycle length [1, 9]: not affected
Effects on medium to late repolarisation ([1]; hiPSC-CM, at concentrations higher than 15 nM): not present
% Change of cycle length from baseline [1, 10]: 1.42±3.67%
SMILES: N#Cc1ccc2c(c1)CO[C@@]2(CCCN)c1ccc(F)cc1 [S-didemethylcitalopram]
Cardiotoxic at therapeutic concentrations ([1]; hiPSC-CM): did not find indications

Further lines, the compound ahead of its results:

SMILES: N#Cc1ccc2c(c1)CO[C@]2(CCCN)c1ccc(F)cc1 [R-didemethylcitalopram]
Cardiotoxic at therapeutic concentrations ([1]; hiPSC-CM): did not find indications
% Change of cycle length from baseline [1, 7]: -1.09±3.49%
% Change of cycle length from baseline [1, 8]: -1.67±2.65%
Concentration that increased early repolarisation (APD30) ([1]; hiPSC-CM, 30 min exposure): 60 nM
Concentration that reduced triangulation (APD90-APD30) ([1]; hiPSC-CM, 30 min exposure): 6 nM
Effect on cycle length [1, 9]: not affected
% Change of cycle length from baseline [1, 10]: -1.40±5.04%

SMILES: CNCCC[C@@]1(c2ccc(F)cc2)OCc2cc(C#N)ccc21 [S-demethylcitalopram]
Concentration dependence of triangulation ([1]; hiPSC-CM): dose-dependent increase
% Change of cycle length from baseline [1, 7]: -3.81±3.22 %
% Change of cycle length from baseline [1, 8]: -7.22±2.14 %
Concentration that increased late repolarisation (APD90) ([1]; hiPSC-CM, 30 min exposure): 1500 nM
Concentration that increased triangulation (APD90-APD30) of the action potential ([1]; hiPSC-CM, 30 min exposure): 150 nM
Concentration that reduced early repolarisation (APD30) ([1]; hiPSC-CM, 30 min exposure): 1500 nM
Effect on cycle length [1, 9]: limited shortening
% Change of cycle length from baseline [1, 10]: -4.33±3.45 %
